Experimental findings from doi:10.1101/2025.07.03.663083, “TMC1 and TMC2 are cholesterol-dependent scramblases that regulate membrane homeostasis in auditory hair cells” (bioRxiv, 2025) are described below.

Assay in all cases: proteoliposome scramblase assay, dithionite and BSA back-extraction of NBD fluorescence
What all share (type): functional

One assay has as its target T1, MuTMC2 (truncated) (Melopsittacus undulatus, UniProt Z9DQS5U608).
T1 construct: transmembrane core without N- and C-terminal domains; His-GFP tag kept; Sf9 (baculovirus); purified in DDM/CHS, reconstituted in liposomes
T1 sequence (Z9DQS5U608 211-807): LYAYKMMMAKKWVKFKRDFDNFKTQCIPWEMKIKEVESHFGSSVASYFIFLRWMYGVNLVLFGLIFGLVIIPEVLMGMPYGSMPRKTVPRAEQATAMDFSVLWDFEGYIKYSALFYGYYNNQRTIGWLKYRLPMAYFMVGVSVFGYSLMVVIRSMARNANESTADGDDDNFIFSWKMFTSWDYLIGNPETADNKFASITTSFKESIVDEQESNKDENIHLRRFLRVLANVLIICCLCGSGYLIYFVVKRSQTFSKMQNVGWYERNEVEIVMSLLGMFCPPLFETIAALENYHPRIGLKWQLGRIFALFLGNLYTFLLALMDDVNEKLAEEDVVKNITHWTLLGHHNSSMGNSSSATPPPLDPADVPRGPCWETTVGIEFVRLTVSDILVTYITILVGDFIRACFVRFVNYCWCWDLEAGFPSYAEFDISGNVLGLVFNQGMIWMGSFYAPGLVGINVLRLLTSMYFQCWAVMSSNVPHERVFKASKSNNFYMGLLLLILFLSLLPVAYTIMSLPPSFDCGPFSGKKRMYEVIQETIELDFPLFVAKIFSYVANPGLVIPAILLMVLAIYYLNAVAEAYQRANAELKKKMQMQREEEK
Particulars: labelled compound; POPC/POPE/POPS […] with […] cholesterol, pH […] °C; lipid translocation, no headgroup specificity.

A further assay concerns the target T2, FL CmTMC1 (Chelonia mydas, UniProt Z9P3M8BL59).
T2 construct: full length, 1-955; His-GFP tag; Sf9 (baculovirus); reconstituted in liposomes
T2 sequence (Z9P3M8BL59 1-955): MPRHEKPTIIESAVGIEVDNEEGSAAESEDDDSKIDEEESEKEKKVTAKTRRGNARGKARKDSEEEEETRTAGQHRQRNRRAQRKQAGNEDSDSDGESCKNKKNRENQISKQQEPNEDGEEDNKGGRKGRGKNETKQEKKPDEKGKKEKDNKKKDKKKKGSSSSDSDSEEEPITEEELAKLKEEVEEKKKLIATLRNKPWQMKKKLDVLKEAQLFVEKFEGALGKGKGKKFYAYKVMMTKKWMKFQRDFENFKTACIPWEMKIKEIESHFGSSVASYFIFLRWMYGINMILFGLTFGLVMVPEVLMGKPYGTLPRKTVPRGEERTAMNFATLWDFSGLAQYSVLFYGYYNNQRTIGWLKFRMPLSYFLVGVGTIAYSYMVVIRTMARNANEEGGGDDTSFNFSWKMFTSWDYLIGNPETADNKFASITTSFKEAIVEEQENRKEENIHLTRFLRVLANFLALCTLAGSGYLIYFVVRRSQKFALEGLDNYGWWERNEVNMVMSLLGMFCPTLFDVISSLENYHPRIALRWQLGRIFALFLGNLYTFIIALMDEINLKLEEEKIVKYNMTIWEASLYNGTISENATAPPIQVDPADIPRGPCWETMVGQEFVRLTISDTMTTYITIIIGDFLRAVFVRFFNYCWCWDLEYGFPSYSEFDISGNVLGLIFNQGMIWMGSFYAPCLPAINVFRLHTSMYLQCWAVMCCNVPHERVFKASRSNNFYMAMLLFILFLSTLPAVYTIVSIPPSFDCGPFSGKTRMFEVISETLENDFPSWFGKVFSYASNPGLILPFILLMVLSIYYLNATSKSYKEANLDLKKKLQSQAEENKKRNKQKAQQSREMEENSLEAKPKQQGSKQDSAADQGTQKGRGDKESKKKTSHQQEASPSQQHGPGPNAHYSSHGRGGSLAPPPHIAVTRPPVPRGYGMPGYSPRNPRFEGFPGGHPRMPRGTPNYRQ
The settings on record: labelled compound; POPC/POPE/POPS 2:1:1 with 10% cholesterol, pH 7.4, 25 °C; lipid translocation, no headgroup specificity.

Another assay deals with T3, CmTMC1 (truncated) (Chelonia mydas, UniProt Z9P3M8BL59).
T3 construct: transmembrane core without N- and C-terminal domains; His-GFP tag kept; Sf9 (baculovirus); purified in DDM/CHS, reconstituted in liposomes
T3 sequence (Z9P3M8BL59 230-828): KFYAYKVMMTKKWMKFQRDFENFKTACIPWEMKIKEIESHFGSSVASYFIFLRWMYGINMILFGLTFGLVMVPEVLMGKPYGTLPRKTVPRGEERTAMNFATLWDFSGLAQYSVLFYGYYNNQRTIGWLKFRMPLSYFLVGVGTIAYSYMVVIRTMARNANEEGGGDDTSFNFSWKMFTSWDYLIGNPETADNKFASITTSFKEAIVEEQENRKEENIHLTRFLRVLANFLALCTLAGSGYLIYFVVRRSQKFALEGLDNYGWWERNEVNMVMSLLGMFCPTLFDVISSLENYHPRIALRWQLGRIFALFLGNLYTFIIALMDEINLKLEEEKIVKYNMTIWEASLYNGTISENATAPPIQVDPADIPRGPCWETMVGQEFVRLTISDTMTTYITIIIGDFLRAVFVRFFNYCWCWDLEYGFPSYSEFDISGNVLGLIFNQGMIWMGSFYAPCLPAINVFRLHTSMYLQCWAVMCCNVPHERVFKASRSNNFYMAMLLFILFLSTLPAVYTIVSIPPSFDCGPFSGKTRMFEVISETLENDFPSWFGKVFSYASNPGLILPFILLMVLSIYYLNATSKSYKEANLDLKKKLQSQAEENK
Particulars: labelled compound; POPC/POPE/POPS 2:1:1 with 10% cholesterol, pH 7.4, 25 °C; lipid translocation, no headgroup specificity.

Another assay addresses T4, FL MuTMC2 (Melopsittacus undulatus, UniProt Z9DQS5U608).
T4 construct: full length, 1-928; His-GFP tag; Sf9 (baculovirus); reconstituted in liposomes
T4 sequence (Z9DQS5U608 1-928): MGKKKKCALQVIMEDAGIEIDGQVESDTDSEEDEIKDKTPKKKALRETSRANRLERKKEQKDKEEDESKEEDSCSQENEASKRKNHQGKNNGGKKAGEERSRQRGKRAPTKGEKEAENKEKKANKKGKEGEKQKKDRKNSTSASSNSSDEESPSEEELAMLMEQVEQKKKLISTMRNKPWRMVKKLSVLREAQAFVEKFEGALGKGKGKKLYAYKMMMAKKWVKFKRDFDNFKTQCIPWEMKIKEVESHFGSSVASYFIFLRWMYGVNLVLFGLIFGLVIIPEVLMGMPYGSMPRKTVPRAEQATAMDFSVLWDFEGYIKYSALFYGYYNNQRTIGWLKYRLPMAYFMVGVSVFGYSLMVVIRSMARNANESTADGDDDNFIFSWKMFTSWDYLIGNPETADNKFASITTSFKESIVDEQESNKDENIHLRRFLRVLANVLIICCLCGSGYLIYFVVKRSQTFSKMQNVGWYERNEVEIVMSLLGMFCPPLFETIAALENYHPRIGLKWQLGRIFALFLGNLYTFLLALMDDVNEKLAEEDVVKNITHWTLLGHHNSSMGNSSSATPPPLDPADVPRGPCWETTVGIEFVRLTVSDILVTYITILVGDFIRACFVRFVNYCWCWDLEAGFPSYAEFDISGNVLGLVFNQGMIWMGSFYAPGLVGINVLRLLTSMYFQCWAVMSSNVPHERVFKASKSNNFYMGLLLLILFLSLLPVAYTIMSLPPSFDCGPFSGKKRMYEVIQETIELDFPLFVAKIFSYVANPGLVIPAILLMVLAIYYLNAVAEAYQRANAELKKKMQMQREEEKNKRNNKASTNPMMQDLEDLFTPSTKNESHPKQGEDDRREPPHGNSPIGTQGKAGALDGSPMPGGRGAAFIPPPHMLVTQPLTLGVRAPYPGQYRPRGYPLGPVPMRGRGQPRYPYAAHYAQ
Particulars: labelled compound; POPC/POPE/POPS […] with […] cholesterol, pH […] °C; lipid translocation, no headgroup specificity.

Turning to `CCCCCCCCCCCCCC(=O)OC[C@H](COP(=O)(O)OCCN)OC(=O)CCCCCNc1ccc([N+](=O)[O-])c2nonc12` [NBD-PE, 1-myristoyl-2-sn-glycero-3-phosphoethanolamine], the “proteoliposome scramblase assay, dithionite and BSA back-extraction of NBD fluor” value is “due to scrambling of the fluorescent NBD-PE lipids by the TMC proteins” at MuTMC2 (truncated); “no differences in PLS activity between truncated and FL CmTMC1 and MuTMC2” on FL CmTMC1; “due to scrambling of the fluorescent NBD-PE lipids by the TMC proteins” at CmTMC1 (truncated); “no differences in PLS activity between truncated and FL CmTMC1 and MuTMC2” at FL MuTMC2.
